Among the test systems are DMS-273; DMS-114; XF498; M19-MEL; LXFL 529; SNB-78; KM-20L2; HOP-18; RXF 631.
Assay in all cases: DTP human tumour cell line panel, 48 h

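Assay format: 96-well plates, 48-hour exposure. GI50: concentration for 50% inhibition of growth.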 Active and inactive are the calls of the source. No stated cut-off is given here; in the data, active = GI50 up to about 1.1 µM and inactive = higher.

The results in this text go back to ChEMBL document CHEMBL1201862, “PubChem BioAssay data set” (2004).

The term GI50 denotes the concentration that inhibits growth by half.

Regarding `COC(=O)c1c(C(=O)OC)c2cc(C(=O)c3ccccc3)ccn2c1Cl`, the GI50 in the assay with DMS-273 was 27.6 µM (inactive); with DMS-114, 23.5 µM (inactive); in the assay with XF498 it was 24.3 µM (inactive); in the assay with M19-MEL, 32.5 µM (inactive); with LXFL 529 it was 30 µM (inactive); with SNB-78, 50.9 µM (inactive). Also, in the assay with KM-20L2, the GI50 was 55 µM (inactive).
In the case of `Cc1nc2c(o1)/C(=N\c1ccccc1)c1ccccc1C2=O`, the GI50 was 10.2 µM (inactive) in the assay with DMS-273; 3.3 µM (inactive) in the assay on DMS-114; 4.02 µM (inactive) in the assay with XF498; 1.86 µM (inactive) in the assay on M19-MEL; 11.9 µM (inactive) in the assay with LXFL 529; 5.42 µM (inactive) in the assay with HOP-18. The GI50 is 6.81 µM (inactive) in the assay on SNB-78 and 17.4 µM (inactive) in the assay on KM-20L2.
For `O=C1C=C[C@@]23CC1C(O)C[C@H]2C=Cc1ccccc13` (some centres not stated), the GI50 in the assay on DMS-114, in the assay on XF498, in the assay on M19-MEL, in the assay on LXFL 529 and in the assay on KM-20L2 was > 100 µM (inactive) each time.
Consider `O=[N+]([O-])c1cccc(C2=NOC(C3CCCCC3)C2)c1` (configuration not stated), for which the GI50 in the assay with DMS-273, with RXF 631, with DMS-114, with M19-MEL, in the assay with LXFL 529 and in the assay with HOP-18 was > 100 µM (inactive) in each case. In the assay on SNB-78, the GI50 is > 100 µM (inactive).
For `CC1=CCC(O)C=CC(C)C(O)C(C)C=C(C)C(=O)c2c(O)c(C)cc3c2C(=O)C(N)=C(NC(=O)/C=C\C=C/C=CC(C)C(O)CC1=O)C3=O` (configuration not stated), the GI50 in the assay on DMS-273 was > 100 µM (inactive); with DMS-114 it was > 100 µM (inactive); in the assay with XF498, > 100 µM (inactive); in the assay on M19-MEL it was > 100 µM (inactive); with LXFL 529 it was 27.8 µM (inactive); in the assay with SNB-78, 17.3 µM (inactive). Besides, the GI50 in the assay on KM-20L2 is > 100 µM (inactive).
For `COc1cc([C@H]2c3cc4c(cc3[C@H](NCc3ccc(F)cc3)C3COC(=O)[C@H]32)OCO4)cc(OC)c1O` (some centres not stated), the GI50 was 1.3 µM (inactive) with DMS-273; 2.32 µM (inactive) in the assay with RXF 631; 3.37 µM (inactive) in the assay with DMS-114; 2.37 µM (inactive) with XF498; 7.59 µM (inactive) with M19-MEL; 16.3 µM (inactive) in the assay on LXFL 529. The GI50 in the assay with HOP-18 was 26.3 µM (inactive); in the assay on SNB-78, 24.7 µM (inactive); in the assay with KM-20L2, 3.56 µM (inactive).
In the case of `O=C1c2ccccc2C(=O)C1(Cl)C1(S(=O)(=O)O)c2ccccc2-c2ccccc21`, the GI50 with DMS-273, with DMS-114, in the assay on XF498, in the assay with M19-MEL, in the assay with LXFL 529 and in the assay on HOP-18 was > 100 µM (inactive) in each case. Further, the GI50 in the assay with SNB-78 and with KM-20L2 was > 100 µM (inactive) throughout.
As for `COc1ccc2nc3cc(Cl)ccc3c(NCCCN(CCCl)CCCl)c2c1`, the GI50 was 0.0161 µM (active) in the assay with DMS-273; 0.0118 µM (active) with RXF 631; < 0.01 µM (active) in the assay on DMS-114; < 0.01 µM (active) in the assay with XF498; 0.0443 µM (active) in the assay on M19-MEL; 0.0166 µM (active) with LXFL 529. Moreover, the GI50 in the assay on HOP-18 is 2.64 µM (inactive); in the assay on SNB-78, 0.0845 µM (active); with KM-20L2 it was 0.0339 µM (active).
For `CC(=O)c1ccc(NC(=O)C(=O)C(C(=O)c2ccc(Cl)c(Cl)c2)C2OC(=O)c3ccccc32)cc1` (configuration not stated), the GI50 with DMS-273 was 22.1 µM (inactive); in the assay on DMS-114, 13.4 µM (inactive); in the assay on XF498 it was 22.5 µM (inactive); in the assay on LXFL 529, 11 µM (inactive); in the assay on HOP-18 it was 12.3 µM (inactive); in the assay on SNB-78, 12.9 µM (inactive). In addition, the GI50 with KM-20L2 was 34.4 µM (inactive).
On to `O=C(c1ccccc1)N1CCN2CCN=C(c3ccccc3)C21c1ccccc1` (configuration not stated), for which the GI50 is > 100 µM (inactive) with DMS-273; 30.5 µM (inactive) in the assay with DMS-114; 81.7 µM (inactive) in the assay on M19-MEL; 97.9 µM (inactive) in the assay with LXFL 529; > 100 µM (inactive) in the assay on HOP-18; > 100 µM (inactive) in the assay with SNB-78. The GI50 in the assay on KM-20L2 was 70.6 µM (inactive).
Regarding `COc1ccc(-c2cnoc2-c2ccc(OC)c(OC)c2)cc1OC`, the 50% growth inhibitory concentration (GI50) with DMS-273 was 0.314 µM (active); in the assay on DMS-114, 0.441 µM (active); in the assay with XF498, 1.75 µM (inactive); with M19-MEL, 0.891 µM (active); in the assay with LXFL 529, 1.83 µM (inactive); in the assay with HOP-18, 6.14 µM (inactive). The GI50 was 7.62 µM (inactive) in the assay with SNB-78 and 4.66 µM (inactive) in the assay with KM-20L2.
With `O=C(/C=C(\O)C(=O)O)/C=C(\O)c1ccc(Cl)cc1`, the GI50 in the assay with DMS-273, with DMS-114, with XF498, in the assay with M19-MEL, in the assay on LXFL 529 and in the assay with HOP-18 was > 100 µM (inactive) in each case. Moreover, the GI50 with SNB-78 and in the assay with KM-20L2 was > 100 µM (inactive) throughout.
For the compound `O=P(CN1CCOCC1)(c1ccccc1)c1ccccc1`, the GI50 in the assay on DMS-273, in the assay on RXF 631, with DMS-114, in the assay on XF498, in the assay with M19-MEL and in the assay with LXFL 529 was > 100 µM (inactive) in each case. In addition, the GI50 in the assay on SNB-78 is > 100 µM (inactive).
With `CN(C)c1ccc(/C=C2\CCc3ccccc3C2=O)cc1Br`, the GI50 with DMS-273 was 34.7 µM (inactive); in the assay with XF498, 94.6 µM (inactive); in the assay on M19-MEL it was 49.4 µM (inactive); in the assay on LXFL 529, 48.3 µM (inactive); with HOP-18, > 100 µM (inactive); with SNB-78, 39.4 µM (inactive). The GI50 in the assay with KM-20L2 is 21.6 µM (inactive).
On to `Cc1c2n(c(=O)[nH]c1=O)C1OC(CO)C(O2)C1N=[N+]=[N-]` (configuration not stated), for which the GI50 in the assay on DMS-273, in the assay on DMS-114, with M19-MEL, with LXFL 529, in the assay on SNB-78 and with KM-20L2 was > 100 µM (inactive) each time.
Take `COc1ccc(C(=O)O)c2c(=O)c3ccccc3[nH]c12`: the GI50 in the assay on DMS-273, in the assay with XF498, with M19-MEL, in the assay with LXFL 529, with SNB-78 and in the assay with KM-20L2 was > 100 µM (inactive) each time.
For the compound `COc1ccc(C2S/C(=C\c3cccc(OC)c3)C(=O)N2NC(=O)Cc2ccccc2)cc1` (configuration not stated), the GI50 with DMS-273, with M19-MEL, in the assay with LXFL 529 and in the assay on HOP-18 was > 100 µM (inactive) throughout.
As to `CC(C)(CN1CCCCC1)C(=O)CC(SCCN)c1ccc(Cl)cc1` (configuration not stated), the GI50 with DMS-273 was 1.98 µM (inactive); in the assay with RXF 631, 3.94 µM (inactive); in the assay with DMS-114 it was 1.58 µM (inactive); with XF498 it was 1.71 µM (inactive); in the assay on M19-MEL, 2.28 µM (inactive); with LXFL 529 it was 1.75 µM (inactive). The GI50 in the assay with SNB-78 is 2.56 µM (inactive); in the assay with KM-20L2, 1.67 µM (inactive).
Consider `CCc1cc(C(=O)OC)cn1C(=N)c1ccc(Cl)cc1`, for which the GI50 with DMS-273, with DMS-114, with XF498, in the assay on M19-MEL, in the assay with LXFL 529 and in the assay on HOP-18 was > 100 µM (inactive) each time. The GI50 in the assay on SNB-78 and in the assay on KM-20L2 was > 100 µM (inactive) throughout.
Take `CC1=Nc2ccccc2NC(c2ccoc2)C1` (configuration not stated): the GI50 in the assay on DMS-273, in the assay on RXF 631, in the assay on DMS-114, in the assay on M19-MEL, in the assay on LXFL 529 and in the assay on HOP-18 was > 100 µM (inactive) in each case. Further, the GI50 in the assay with SNB-78 and with KM-20L2 was > 100 µM (inactive) each time.
`CCCCCCCCOCC(COC(=O)CCCCCCC)OC(=O)CCCCCCC` (configuration not stated): the GI50 in the assay on DMS-273, in the assay on RXF 631, in the assay on DMS-114, with M19-MEL, in the assay with LXFL 529 and in the assay with HOP-18 was > 100 µM (inactive) throughout. The GI50 with KM-20L2 is > 100 µM (inactive).
As for `O=[N+]([O-])c1ccc(Sc2c3ccccc3nc3ccccc23)cc1`, the GI50 in the assay on RXF 631, in the assay with XF498, in the assay on M19-MEL, with LXFL 529, with HOP-18 and with SNB-78 was > 100 µM (inactive) throughout. Further, the GI50 with KM-20L2 was > 100 µM (inactive).
With `Cc1cc(N(CCC#N)CCC#N)ccc1/N=N/c1ccc(Br)cc1`, the GI50 in the assay with DMS-273 was 17.8 µM (inactive); with RXF 631, 11.1 µM (inactive); in the assay on DMS-114, 20.2 µM (inactive); with XF498, 2.22 µM (inactive); in the assay with M19-MEL it was > 53.3 µM (inactive); in the assay with LXFL 529, > 48.8 µM (inactive). Besides, the values for the GI50 with HOP-18, in the assay with SNB-78 and in the assay on KM-20L2 were > 35 µM (inactive), 17.7 µM (inactive) and 3.61 µM (inactive), respectively.
As to `O=C1/C(=C/c2ccccc2)CN(C(=O)C(F)(F)F)C/C1=C\c1ccccc1`, the GI50 in the assay with DMS-273 is 1.44 µM (inactive); in the assay with DMS-114, 1.64 µM (inactive); in the assay with M19-MEL, 1.61 µM (inactive); with LXFL 529 it was 1.66 µM (inactive); with HOP-18, 6.82 µM (inactive); with SNB-78, 2.2 µM (inactive). In addition, in the assay with KM-20L2, the GI50 was 2.11 µM (inactive).
As for `COC1=C2C[C@H](O)C(C)C[C@@]2(OC)OC1=O` (some centres not stated), the GI50 in the assay with DMS-273, in the assay with RXF 631, with XF498, with M19-MEL, in the assay on LXFL 529 and in the assay with SNB-78 was > 100 µM (inactive) in each case.
Take `COc1cc(/C=C\c2ccc(C)cc2)cc(OC)c1OC`: the GI50 in the assay on DMS-273 was 0.0012 µM (active); in the assay with DMS-114 it was 0.000266 µM (active); in the assay with XF498 it was 0.00033 µM (active); in the assay on M19-MEL, 0.00197 µM (active); in the assay on LXFL 529, 0.0004 µM (active); with SNB-78 it was 0.0001 µM (active). The GI50 in the assay with KM-20L2 was 0.000117 µM (active).
